Converted amounts (≈) assume the structure as drawn.
Tests used:
[1] = Determination of logD (1-octanol / phosphate buffer pH 7.4); format: physicochemical; settings: 1-octanol/phosphate buffer, pH 7.4, pH 7.4, 1-octanol/phosphate buffer; read-out: Log D, pH 7.4
Procedure, shortened: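 Each phase analysed by LCMS after 1 h shaking at 800 rpm and centrifugation, room temperature. Phases were mutually saturated 1-octanol and 100 mM phosphate buffer at pH 7.4. LogD derived from the phase concentrations.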

[2] = target: KRAS G12C (GMPPNP-loaded) and PI3Ka (Ras-binding domain) interaction (Homo sapiens (Human), UniProt P01116, C118S/C51S/C80L/G12C); assay: Inhibition of KRAS G12C and PI3Ka binding (AlphaScreen); settings: KRAS G12C loaded with GMPPNP, PI3Ka RBD, 2 hours preincubation; read-out: PI3K RBD K-Ras IC50
Procedure, shortened: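 Biotin-AviTag Cys-light KRAS G12C (aa 1-169, C51S/C80L/C118S), GMPPNP-loaded, 1.5 nM, preincubated 2 h with compound, then His-tagged PI3Ka RBD (aa 157-300, 100 nM) plus AlphaScreen beads added for 60-90 min, RT. Buffer Hepes pH 7.4, 10 μM GMPPNP, 2% DMSO; 10-point 1:3 from 50 μM; 4-parameter IC50.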

[3] = target: KRAS G12C (GMPPNP-loaded) and cRAF (Ras-binding domain) interaction (Homo sapiens (Human), UniProt P01116, C118S/C51S/C80L/G12C); assay: Inhibition of KRAS G12C and cRAF binding (AlphaScreen); settings: KRAS G12C loaded with GMPPNP, cRaf RBD, 2 hours preincubation; read-out: Raf-1 RBD K-Ras IC50
Procedure, shortened: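 AlphaScreen readout (680 nm excitation, 570 nm emission) of RBD binding after a 60-90 min bead step at room temperature. This step follows 2 h compound exposure of GMPPNP-preloaded KRAS G12C in Hepes pH 7.4 buffer with MgCl2 and 10 μM GMPPNP.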

[4] = Determination of kinetic solubility (pH 7.4); format: physicochemical; settings: phosphate buffer, pH 7.4, aqueous buffer, kinetic from dmso stock, 50 mM phosphate buffer pH 7.4, read-out: Ksol, pH 7.4
Procedure, shortened: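 Solubility taken from filtrate peak areas on a calibration curve (HPLC-UV, LC-MS/MS). Before filtration and centrifugation, compound was shaken for 2 h at room temperature in pH 7.4 50 mM phosphate buffer.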

Sequence of KRAS G12C (GMPPNP-loaded) and cRAF (Ras-binding domain) interaction (P01116 other isoform, or with tags, fused parts or gaps G12C/C51S/C80L/C118S): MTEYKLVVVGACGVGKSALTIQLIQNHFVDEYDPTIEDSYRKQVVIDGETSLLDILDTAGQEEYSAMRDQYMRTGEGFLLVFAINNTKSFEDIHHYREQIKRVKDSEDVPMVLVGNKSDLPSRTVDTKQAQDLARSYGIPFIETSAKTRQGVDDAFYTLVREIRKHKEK
Sequence of KRAS G12C (GMPPNP-loaded) and PI3Ka (Ras-binding domain) interaction (P01116 other isoform, or with tags, fused parts or gaps G12C/C51S/C80L/C118S): as above

| SMILES | logD [1] | IC50 [2] [nM] | IC50 [3] [nM] | solubility kinetic at 2 h [4] [µg/mL] |
| --- | --- | --- | --- | --- |
| Cc1cc(N)nc([C@@H]2Cc3nc(OC[C@@]45CCCN4C[C@H](F)C5)nc(N4CCN(C(=O)/C=C/c5nc([C@H]6C[C@@H]6F)no5)[C@@H](CC#N)C4)c3C[C@H]2C)c1C(F)(F)F [Compound 136] | 4.37 | < 10 | < 10 | 0.02 (≈ 0.0255 µM) |
| Cc1nccc(/C=C/C(=O)N2CCN(c3nc(OCC45CCCN4CCC5)nc4c(F)c(-c5cccc6cccc(Cl)c56)ncc34)C[C@@H]2CC#N)n1 [Compound 139] | 1.93 | < 10 | 10 to 100 | 107 (≈ 150 µM) |
| N#CC[C@H]1CN(c2nc(OC[C@@]34CCCN3C[C@H](F)C4)nc3c(F)c(-c4cccc5ccc(F)c(Cl)c45)ncc23)CCN1C(=O)/C=C/CN1[C@@H]2CC[C@H]1COC2 [Example 79, 2-((S)-1-((E)-4-((1R,5S)-3-oxa-8-azabicyclo[3.2.1]octan-8-yl)but-2-enoyl)-4-(7-(8-chloro-7-fluoronaphthalen-1-yl)-8-fluoro-2-(((2R,7aS)-2-fluorotetrahydro-1H-pyrrolizin-7a(5H)-yl)methoxy)pyrido[4,3-d]pyrimidin-4-yl)piperazin-2-yl)acetonitrile] | 3.53 | < 10 | < 10 | 155 (≈ 197 µM) |
| Cc1nccc(/C=C/C(=O)N2CCN(c3nc(OC[C@@]45CCCN4C[C@H](F)C5)nc4c(F)c(-c5cccc6ccc(F)c(Cl)c56)ncc34)C[C@@H]2CC#N)n1 [Compound 147] | 3.64 | < 10 | < 10 | 4.93 (≈ 6.54 µM) |
| C[C@@H]1CN(C/C=C/C(=O)N2CCN(c3nc(OC[C@@]45CCCN4C[C@H](F)C5)nc4c(F)c(-c5cccc6cccc(Cl)c56)ncc34)C[C@@H]2CC#N)C[C@H](C)O1 [Compound 186] | 3.54 | 10 to 100 | 10 to 100 | 89 (≈ 115 µM) |
| Cc1nsc(/C=C/C(=O)N2CCN(c3nc(OC[C@@]45CCCN4C[C@H](F)C5)nc4c(F)c(-c5cccc6cccc(Cl)c56)ncc34)C[C@@H]2CC#N)n1 [Compound 138] | 3.9 | < 10 | < 10 | 0.01 (≈ 0.0135 µM) |
| C#Cc1c(F)ccc2cccc(-c3ncc4c(N5CCN(C(=O)/C=C/c6cc(C)nc(C)n6)[C@@H](CC#N)C5)nc(OC[C@@]56CCCN5C[C@H](F)C6)nc4c3F)c12 [Compound 101, 2-((S)-1-((E)-3-(2,6-dimethylpyrimidin-4-yl)acryloyl)-4-(7-(8-ethynyl-7-fluoronaphthalen-1-yl)-8-fluoro-2-(((2R,7aS)-2-fluorotetrahydro-1H-pyrrolizin-7a(5H)-yl)methoxy)pyrido[4,3-d]pyrimidin-4-yl)piperazin-2-yl)acetonitrile] | 3.32 | < 10 | < 10 | 1.49 (≈ 1.97 µM) |
| N#CC[C@H]1CN(c2nc(OCC34CCCN3CCC4)nc3c2CCN(c2cccc4cccc(Cl)c24)C3)CCN1C(=O)/C=C/CN1CCSCC1 [Compound 171] | 3.3 | < 10 | < 10 | 108 (≈ 149 µM) |
| CC(C)c1noc(/C=C/C(=O)N2CCN(c3nc(OCC45CCCN4CCC5)nc4c3CCN(c3cccc5ccc(F)c(Cl)c35)C4)C[C@@H]2CC#N)n1 [Compound 126] | 4.24 | 10 to 100 | 10 to 100 | 0.01 (≈ 0.0135 µM) |
| Cc1nsc(/C=C/C(=O)N2CCN(c3nc(OC[C@@]45CCCN4C[C@H](F)C5)nc4c3CCN(c3cccc5cccc(Cl)c35)C4)C[C@@H]2CC#N)n1 [Compound 127] | 4.77 | < 10 | < 10 | 0.01 (≈ 0.0137 µM) |

More lines, now with the values ahead:

| logD [1] | IC50 [2] [nM] | IC50 [3] [nM] | solubility kinetic at 2 h [4] [µg/mL] | SMILES |
| --- | --- | --- | --- | --- |
| 2.81 | < 10 | < 10 | 118 (≈ 158 µM) | C#Cc1c(F)ccc2cccc(-c3ncc4c(N5CCN(C(=O)/C=C/CN6CCOCC6)[C@@H](CC#N)C5)nc(OC[C@@]56CCCN5C[C@H](F)C6)nc4c3F)c12 [Compound 255] |
| 3.86 | < 10 | < 10 | 79.1 (≈ 103 µM) | C[C@H]1CN(C/C=C/C(=O)N2CCN(c3nc(OC[C@@]45CCCN4C[C@H](F)C5)nc4c(F)c(-c5cccc6cccc(Cl)c56)ncc34)C[C@@H]2CC#N)C[C@H](C)O1 [Compound 188] |
| 3.77 | < 10 | 10 to 100 | 5.26 (≈ 7 µM) | Cc1cc(/C=C/C(=O)N2CCN(c3nc(OC[C@@]45CCCN4C[C@H](F)C5)nc4c(F)c(-c5cccc6ccc(F)c(F)c56)ncc34)C[C@@H]2CC#N)nc(C)n1 [Example 90, 2-((S)-4-(7-(7,8-difluoronaphthalen-1-yl)-8-fluoro-2-(((2R,7aS)-2-fluorotetrahydro-1H-pyrrolizin-7a(5H)-yl)methoxy)pyrido[4,3-d]pyrimidin-4-yl)-1-((E)-3-(2,6-dimethylpyrimidin-4-yl)acryloyl)piperazin-2-yl)acetonitrile] |
| 3.2 | < 10 | < 10 | 146 (≈ 189 µM) | CO[C@H]1CCN(C/C=C/C(=O)N2CCN(c3nc(OC[C@@]45CCCN4C[C@H](F)C5)nc4c(F)c(-c5cccc6ccc(F)c(Cl)c56)ncc34)C[C@@H]2CC#N)C1 [Example 80, 2-((S)-4-(7-(8-chloro-7-fluoronaphthalen-1-yl)-8-fluoro-2-(((2R,7aS)-2-fluorotetrahydro-1H-pyrrolizin-7a(5H)-yl)methoxy)pyrido[4,3-d]pyrimidin-4-yl)-1-((E)-4-((S)-3-methoxypyrrolidin-1-yl)but-2-enoyl)piperazin-2-yl)acetonitrile] |
| 3.25 | < 10 | < 10 | 124 (≈ 160 µM) | N#CC[C@H]1CN(c2nc(OC[C@@]34CCCN3C[C@H](F)C4)nc3c(F)c(-c4cccc5ccc(F)c(Cl)c45)ncc23)CCN1C(=O)/C=C/CN1CCCOCC1 [Example 70, 2-((S)-1-((E)-4-(1,4-oxazepan-4-yl)but-2-enoyl)-4-(7-(8-chloro-7-fluoronaphthalen-1-yl)-8-fluoro-2-(((2R,7aS)-2-fluorotetrahydro-1H-pyrrolizin-7a(5H)-yl)methoxy)pyrido[4,3-d]pyrimidin-4-yl)piperazin-2-yl)acetonitrile] |
| 2.47 | < 10 | < 10 | 139 (≈ 195 µM) | Cc1cc(N)nc(C2Cc3nc(OC[C@@]45CCCN4C[C@H](F)C5)nc(N4CCN(C(=O)/C=C/CN(C)C)[C@@H](CC#N)C4)c3CC2C)c1C(F)(F)F (stereo partly shown) [Compound 315] |
| 3.54 | 10 to 100 | 10 to 100 | 3.98 (≈ 5.48 µM) | Cc1noc(/C=C/C(=O)N2CCN(c3nc(OC[C@@]45CCCN4C[C@H](F)C5)nc4c(F)c(-c5cccc6cccc(Cl)c56)ncc34)C[C@@H]2CC#N)n1 [Example 4, 2-((S)-4-(7-(8-chloronaphthalen-1-yl)-8-fluoro-2-(((2R,7aS)-2-fluorotetrahydro-1H-pyrrolizin-7a(5H)-yl)methoxy)pyrido[4,3-d]pyrimidin-4-yl)-1-((E)-3-(3-methyl-1,2,4-oxadiazol-5-yl)acryloyl)piperazin-2-yl)acetonitrile] |
| 2.97 | < 10 | < 10 | 85.5 (≈ 110 µM) | CO[C@@H]1CCN(C/C=C/C(=O)N2CCN(c3nc(OC[C@@]45CCCN4C[C@H](F)C5)nc4c(F)c(-c5cccc6ccc(F)c(Cl)c56)ncc34)C[C@@H]2CC#N)C1 [Example 85, 2-((S)-4-(7-(8-chloro-7-fluoronaphthalen-1-yl)-8-fluoro-2-(((2R,7aS)-2-fluorotetrahydro-1H-pyrrolizin-7a(5H)-yl)methoxy)pyrido[4,3-d]pyrimidin-4-yl)-1-((E)-4-((R)-3-methoxypyrrolidin-1-yl)but-2-enoyl)piperazin-2-yl)acetonitrile] |
| 3.99 | < 10 | < 10 | 0.03 (≈ 0.0391 µM) | Cc1cc(/C=C/C(=O)N2CCN(c3nc(OC[C@@]45CCCN4C[C@H](F)C5)nc4c(F)c(-c5cccc6ccc(F)c(Cl)c56)ncc34)C[C@@H]2CC#N)nc(C)n1 [Example 89, 2-((S)-4-(7-(8-chloro-7-fluoronaphthalen-1-yl)-8-fluoro-2-(((2R,7aS)-2-fluorotetrahydro-1H-pyrrolizin-7a(5H)-yl)methoxy)pyrido[4,3-d]pyrimidin-4-yl)-1-((E)-3-(2,6-dimethylpyrimidin-4-yl)acryloyl)piperazin-2-yl)acetonitrile] |
